The values that follow come from patent US20070173499A1 (priority 2004, published 2007).

Structures are written as SMILES. Like-named read-outs stand apart in the source and are kept apart here. A value given as a limit tells only on which side of the number the result lay.

One assay deals with T1, 5-HT2A receptor (Homo sapiens, UniProt P28223).
T1 construct: expressed in transfected cells; host or cells: CHO-K1 (or COS-7); alternatively human cortex tissue
In words: radioligand binding assay for 5-HT2A receptor ([3H]-ketanserin). How it is done:
(§1) The effect of the compounds of the present invention on the neurochemical steady state was determined by in vitro investigations such as a radionuclide-marked radioligand binding assay for 5-HT2A (Bonhaus D. W. Br. J. Pharmacol. 1995, 115:622; Saucier C. J. Neurochem. 1997, 68:1998) and 5-HT2C receptors (Wolf W. A. J. Neurochem. 1997, 69:1449), in vitro binding assay for σ1 receptor (Thomson W. and Donn R. Arthritis Res. 2002, 4: 302-306) and by in vivo investigations in a tail suspension test (Vogel H. G. and Vogel W. H. Drug Discovery and Evaluation Pharmacological Assays, Springer 1997, 304), in amphethamine-induced hyperlocomotion in mice (Millan M. J. et al, 1998 J Pharmacol. Exp. Ther. 287: 167-186), in a forced swim test in mice (Porsolt R. D. et al. Arch. Int. Pharmacodyn. 1977, 229:327-336), in meta-chlorophenyl piperazine (m-CPP) test on rats (Drug Dev. Res. 1989, 18:119-144), and in apomorphine, tryptamine and norepinephrine (ATN) test in rats (Arch. Int. Pharmacodyn. 1977, 227:238-253).
(§2) A small concentration of a radioligand having a great affinity for binding to a receptor was incubated with a tissue sample enriched with a certain receptor (1-5 mg of tissue) in a buffered medium (0.2-5 mL). Recombinant human HT2A and HT2C receptors were expressed in CHO-K1 or COS-7 cells and were also used for competitive binding. During incubation the radioligand bound to the receptor. When a binding balance was achieved, the receptors to which the radioligand was bound were separated from those to which said ligand was not bound, and the radioactivity of the receptor/radioligand complex was measured. The interaction of the tested compounds with receptors was tested in competitive binding experiments. Various concentrations of tested compounds were added to the incubation mixture containing a prepared tissue enriched with corresponding receptors and the radioligand. The radioligand binding was inhibited by the test compounds proportionally to the affinity of a certain compound for the receptor and to the concentration of the compound.
(§3) The radioligand used for the determination of binding to 5-HT2A receptor was [^3H]-ketanserin and the tissue used was human cortex or recombinant 5-HT2A receptor expressed in CHO-K1 cells. The radioligand used for the determination of binding to 5-HT2C receptor was [^3H]-mesulergine and the tissue used was choroid plexus or recombinant 5-HT2C receptor expressed in CHO-K1 cells.

In a further assay the target is T2, 5-HT2C receptor (Homo sapiens, UniProt P28335).
T2 construct: expressed in transfected cells; host or cells: CHO-K1 (or COS-7); alternatively choroid plexus tissue
T2 sequence (P28335 33-458): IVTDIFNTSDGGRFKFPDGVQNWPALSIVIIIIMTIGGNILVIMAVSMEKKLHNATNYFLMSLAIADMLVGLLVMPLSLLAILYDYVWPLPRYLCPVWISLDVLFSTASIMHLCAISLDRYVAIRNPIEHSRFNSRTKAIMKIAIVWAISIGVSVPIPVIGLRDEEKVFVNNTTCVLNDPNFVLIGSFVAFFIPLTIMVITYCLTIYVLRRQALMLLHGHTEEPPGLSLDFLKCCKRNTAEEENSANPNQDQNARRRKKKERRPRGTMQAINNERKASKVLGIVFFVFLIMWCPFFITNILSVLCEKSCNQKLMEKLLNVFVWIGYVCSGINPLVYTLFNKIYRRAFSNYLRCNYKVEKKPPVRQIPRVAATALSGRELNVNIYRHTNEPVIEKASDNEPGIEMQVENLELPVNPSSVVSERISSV
Briefly: radioligand binding assay for 5-HT2C receptor ([3H]-mesulergine). As to the method: as §1, §2, §3

Another assay deals with T3, σ1 receptor (Homo sapiens, UniProt Q99720).
T3 construct: endogenous in cells; host or cells: Jurkat cells (membrane fraction)
Briefly: in vitro binding assay for σ1 receptor, Jurkat cell membranes, [3H]haloperidol. To be noted: [3H]haloperidol 10 nM. How it is done:
as §1, with “227:238-253). […]” for “227:238-253).”
Binding of different radiolabeled ligans to Jurkat cell membranes was measured as described previously (Ramamoorthy et al., 1995). […]
Membranes were incubated with ligands in phosphate buffer for 3 hours at room temperature. After filter had been washed, radioactivity associated with the filter was determined by liquid scintillation spectrometry.

T1 sequence (P28223 whole entry): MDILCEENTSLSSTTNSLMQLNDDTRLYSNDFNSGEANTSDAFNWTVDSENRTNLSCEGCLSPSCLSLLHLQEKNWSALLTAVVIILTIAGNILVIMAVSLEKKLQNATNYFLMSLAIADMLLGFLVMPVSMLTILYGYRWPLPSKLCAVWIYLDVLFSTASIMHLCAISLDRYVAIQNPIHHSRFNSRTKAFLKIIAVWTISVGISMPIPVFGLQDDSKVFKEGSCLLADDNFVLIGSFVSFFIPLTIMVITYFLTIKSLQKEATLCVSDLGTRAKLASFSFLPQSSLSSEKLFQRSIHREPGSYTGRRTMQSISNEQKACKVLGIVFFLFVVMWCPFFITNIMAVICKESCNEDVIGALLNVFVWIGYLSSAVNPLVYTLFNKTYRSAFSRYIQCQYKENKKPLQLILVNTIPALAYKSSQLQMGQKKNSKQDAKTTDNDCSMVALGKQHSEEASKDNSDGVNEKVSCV
T3 sequence (Q99720 whole entry): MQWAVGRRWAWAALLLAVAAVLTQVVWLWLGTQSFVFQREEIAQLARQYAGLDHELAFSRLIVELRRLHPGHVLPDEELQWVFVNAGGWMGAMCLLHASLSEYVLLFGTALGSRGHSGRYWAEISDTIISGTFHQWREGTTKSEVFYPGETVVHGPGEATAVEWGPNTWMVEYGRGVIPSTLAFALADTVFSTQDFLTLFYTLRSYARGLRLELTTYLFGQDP

Consider `CN(C)CCCOCc1cc2c(s1)-c1cc3ccccc3cc1Sc1ccccc1-2`, for which the IC50 on 5-HT2A receptor and on 5-HT2C receptor was < 0.2 µM in each case. Also, the Ki on 5-HT2A receptor and at 5-HT2C receptor was < 0.1 µM in each case.

On to `CC(CN(C)C)OCc1cc2c(s1)-c1cc3c(cc1Oc1ccccc1-2)CCCC3` (stereo not shown) [dimethyl-[2-(10,11,12,13-tetrahydro-8-oxa-1-thia-benzo[e]naphtho[3,2-h]azulen-2-ylmethoxy)-propyl]-amine], for which the IC50 (usually the concentration that gives 50% inhibition) at σ1 receptor (read-out: binding affinity to σ1 receptor expressed as IC50) was < 0.2 µM. The Ki (commonly a measure of affinity in units of concentration, obtained from inhibition or displacement) at σ1 receptor (read-out: binding affinity to σ1 receptor, Ki) was < 0.1 µM.

Consider `CN(C)CCCOCc1cc2c(s1)-c1ccc3ccccc3c1Sc1ccccc1-2` [dimethyl-[3-(3,10-dithia-benzo[e]naphtho[1,2-h]azulen-2-ylmethoxy)-propyl]-amine], for which the IC50 on 5-HT2A receptor ([3H]-ketanserin, human cortex or recombinant 5-HT2A receptor in CHO-K1 cells, read-out: binding affinity to 5-HT2A serotonin receptor expressed as IC50) was < 0.2 µM; on 5-HT2C receptor ([3H]-mesulergine, choroid plexus or recombinant 5-HT2C receptor in CHO-K1 cells, read-out: binding affinity to 5-HT2C serotonin receptor expressed as IC50) it was < 0.2 µM. Moreover, the Ki at 5-HT2A receptor ([3H]-ketanserin, human cortex or recombinant 5-HT2A receptor in CHO-K1 cells, read-out: binding affinity to 5-HT2A serotonin receptor, Ki) was < 0.1 µM; on 5-HT2C receptor ([3H]-mesulergine, choroid plexus or recombinant 5-HT2C receptor in CHO-K1 cells, read-out: binding affinity to 5-HT2C serotonin receptor, Ki), < 0.1 µM.
